Here are results for two compounds from article PMC5047689 (Disease Models & Mechanisms, 2016).

Data set [1] deals with CLB-GE subcutaneous xenograft. As to the kind of experiment: Subcutaneous CLB-GE (ALK^F1174V) xenograft in nude mice. The format is in vivo, mouse. On the procedure: Fig. 5. […] 4.5×10^6 CLB-GE cells were injected into left shoulder subcutaneously. (A) Tumor growth curves represent the average volume of vehicle group and PF-06463922-treated group, P≤0.05 (n=5 for each group). […] (C) Average body weight on the day of sacrifice is shown, P>0.05. (D) Immunoblotting analysis of indicated proteins from tumors collected after 8 days of treatment with vehicle or PF-0646399 and relapsed tumors. Tumor lysates were harvested, pre-cleared and analyzed by western blotting for ALK, phospho-ALK-Y1278, MYCN, phospho-ERK1/2 and phospho-AKT. Pan-ERK and pan-Akt were employed as loading controls. (E) Immunohistochemical staining of tumors for […] as a measure of proliferation rate as indicated. […] Data in all graphs presented as mean±s.d.
Mice were grouped by tumor volume randomly. […] Immunohistochemistry was as described ([Yamazaki et al., 2014]). […] (n=15).

Details of data set [2]: method as in Johnson et al., 2014; Zou et al., 2015. The note with it: ref Johnson et al., 2014, Zou et al., 2015, cited from earlier work.
The subject of data set [3] is ALK (phospho-ALK-Y1278) and downstream signaling. As to the kind of experiment: Immunoblotting of ALK signaling in CLB-BAR and CLB-GE neuroblastoma cells. It counts as cell-based, human. The following applies: 6 h treatment, western blot. As for the experimental part:
(§1) Fig. 1. […] (A,B) Proliferation was assessed over 5 days using the resazurin cell proliferation assay in the following neuroblastoma cell lines: CLB-BAR, CLB-GE, CLB-PE, SK-N-AS and IMR32. Neuroblastoma cell line characteristics: CLB-GE – MYCN amplified, 1p deletion, 17q gain, amplified ALK amplicon containing an ALK^F1174V mutation; CLB-BAR – amplified MYCN/ALK, Δexon 4-11, 1p deletion, 17q gain; IMR32 – MYCN, wt sequence but exons 2-4 are amplified, 1p deletion, 17q gain; CLB-PE – 1p gain, amplified MYCN, 17q gain; SK-N-AS – IGF-1 overexpressing, 1p deletion, 1q gain, 17q gain, 17 deletion. […] Cells were harvested and pre-cleared cell lysates were analyzed on SDS PAGE followed by western blotting for ALK, phospho-ALK-Y1278, phospho-ERK5, pan-ERK5 phospho-ERK1/2 and pan-ERK. Actin was employed as a loading control. Protein band intensities were quantified by Image Studio Lite 3.1 and normalized to untreated samples.
(§2) CLB-BAR, CLB-GE, CLB-PE, SK-N-AS and IMR32 neuroblastoma cells (0.25×10^6) were plated on collagen-coated 48-well plates.

For data set [4], the system named is SK-N-AS cells. In words: Resazurin cell proliferation assay, neuroblastoma cell line. The format is cell-based, human. As for the experimental part:
as §1, §2
Background: The colour change of resazurin is a common sign of viable cells or microbes.

Data set [5] deals with CLB-PE cells. The description is as above. It counts as cell-based, human. As for the experimental part: as §1, §2
Data set [6] has as its system IMR32 cells. The description is as above. It counts as cell-based, human. On the procedure:
as §1, §2

In data set [7] the target is ALK kinase domain mutants. In words: In vitro kinase assay, summary over ALK kinase domain mutants. It counts as biochemical, human. The note with it: including ALK^G1269A, read-out: inhibitor level for 50% reduction in activity, all kinase domain mutations tested.
The test system of data set [8] is CLB-GE cells. In words: Resazurin cell proliferation assay, neuroblastoma cell line. It counts as cell-based. The following applies: Homo sapiens, 120 h, read-out: IC50, inhibition of proliferation. On the procedure:
Fig. 1. […] Treatment of neuroblastoma cells with the ALK TKIs crizotinib and PF-06463922. (A,B) Proliferation was assessed over 5 days using the resazurin cell proliferation assay in the following neuroblastoma cell lines: CLB-BAR, CLB-GE, CLB-PE, SK-N-AS and IMR32. Neuroblastoma cell line characteristics: CLB-GE – MYCN amplified, 1p deletion, 17q gain, amplified ALK amplicon containing an ALK^F1174V mutation; CLB-BAR – amplified MYCN/ALK, Δexon 4-11, 1p deletion, 17q gain; IMR32 – MYCN, wt sequence but exons 2-4 are amplified, 1p deletion, 17q gain; CLB-PE – 1p gain, amplified MYCN, 17q gain; SK-N-AS – IGF-1 overexpressing, 1p deletion, 1q gain, 17q gain, 17 deletion. […] Cells were harvested and pre-cleared cell lysates were analyzed on SDS PAGE followed by western blotting for ALK, phospho-ALK-Y1278, phospho-ERK5, pan-ERK5 phospho-ERK1/2 and pan-ERK. Actin was employed as a loading control. Protein band intensities were quantified by Image Studio Lite 3.1 and normalized to untreated samples.
The neuroblastoma CLB cell lines were from Valerie Combaret (Centre Leon Berard, France) under material transfer agreement and all cell lines were authenticated during the investigation with Affymetrix Cytoscan High Density array and compared with earlier cytoscans ([Schleiermacher et al., 2003]). […]

The test system of data set [9] is CLB-BAR cells. The description is as above. It counts as cell-based. The note with it: Homo sapiens, 120 h, read-out: IC50, inhibition of proliferation. As for the experimental part: as §1, §2
In data set [10] the test system is EML4-ALK-driven brain metastases. The arrangement: method as in Zou et al., 2015. The note with it: mouse; effect reversible upon withdrawal; ref Zou et al., 2015; cited from earlier work.
[11] abbreviates: 10 mg/kg twice per day, oral gavage, 7 days.
[12] abbreviates: 10 mg/kg twice per day, tumor lysates, western blot.

As to `C[C@H]1Oc2cc(cnc2N)-c2c(nn(C)c2C#N)CN(C)C(=O)c2ccc(F)cc21` [PF-06463922, (10R)-7-amino-12-fluoro-2,10,16-trimethyl-15-oxo-10,15,16,17-tetrahydro-2H-8,4-(metheno)pyrazolo[4,3-h][2,5,11]-benzoxadiazacyclotetradecine-3-carbonitrile], the “Ki-67 staining of tumors” value in data set [1] (10 mg/kg twice per day, immunohistochemistry) was “reduced staining of the proliferation marker Ki-67”. Moreover, in data set [1] (setting [11]), the “body weight during treatment” value is given as “no observed loss of body weight”. In addition, the “tumor size during treatment” value in data set [1] (setting [11]) is “no increase of tumor size during treatment”. In [1] (setting [12]), the “MYCN expression in tumors” value was “reduced expression of MYCN”. In [1] (setting [12]), the “phosphorylated ALK, ERK1/2 and PKB/Akt in tumors” value was “Inhibition of phosphorylated ALK, ERK1/2 and PKB/Akt was observed”. Besides, the “tumor re-growth after cessation of therapy” value in data set [1] (after 7 days of 10 mg/kg twice per day, treatment discontinued) is on record as “Tumor re-growth was observed 7 days after cessation of therapy”. For the same compound, the half-life in [2] (preclinical animal model) is on record as 2.7 h. Besides, the “central nervous system penetration” value in data set [2] was “ability to penetrate the central nervous system”. For the same compound, the “ALK Y1278 phosphorylation” value in [3] is “loss of tyrosine 1278 (Y1278) phosphorylation on ALK”. The “downstream signaling, pERK1/2 and pERK5” value in data set [3] is on record as “inhibition of downstream signaling”. Moreover, the “decrease in proliferation at high doses” value in data set [4] (high doses (500 nM)), in [5] (high doses (500 nM)) and in data set [6] (high doses (500 nM)) was “not observed” each time. In addition, the inhibition of proliferation entry in data set [4] (increasing doses, 5 days) was “did not observe inhibition of proliferation”; in data set [5] (increasing doses, 5 days) it was “did not observe inhibition of proliferation”; in [6] (increasing doses, 5 days), “did not observe inhibition of proliferation”. In addition, the values for the IC50 in [7], in [8] and in data set [9] were less than 0.0065 µM, 0.025 ± 0.002 µM and 0.016 ± 0.002 µM, respectively. In data set [10], the “tumor volume and survival” value was “regression of tumor volume and prolonged mouse survival”.
Consider `C[C@@H](Oc1cc(-c2cnn(C3CCNCC3)c2)cnc1N)c1c(Cl)ccc(F)c1Cl` [crizotinib], for which the IC50 in data set [8] came out at 0.24 ± 0.027 µM.

The term half-life denotes how long it takes for the measured level to halve.
